Numbers after ± are expanded uncertainties.
Details: Liquid

CO [methanol]
Details	vapor or sublimation pressure [kPa]
298.15 K	16.97 ± 0.046
303.15 K	21.88 ± 0.053
308.15 K	27.96 ± 0.066
313.15 K	35.44 ± 0.081
318.15 K	44.54 ± 0.099
323.15 K	55.58 ± 0.11
